BindingDB's records for doi:10.1096/fasebj.10.12.8903510 (Roche Bioscience, 1996)

These compounds were tested against 5-hydroxytryptamine receptor 4 (Cavia porcellus, UniProt O70528).
Chain of 5-hydroxytryptamine receptor 4 (O70528 whole entry): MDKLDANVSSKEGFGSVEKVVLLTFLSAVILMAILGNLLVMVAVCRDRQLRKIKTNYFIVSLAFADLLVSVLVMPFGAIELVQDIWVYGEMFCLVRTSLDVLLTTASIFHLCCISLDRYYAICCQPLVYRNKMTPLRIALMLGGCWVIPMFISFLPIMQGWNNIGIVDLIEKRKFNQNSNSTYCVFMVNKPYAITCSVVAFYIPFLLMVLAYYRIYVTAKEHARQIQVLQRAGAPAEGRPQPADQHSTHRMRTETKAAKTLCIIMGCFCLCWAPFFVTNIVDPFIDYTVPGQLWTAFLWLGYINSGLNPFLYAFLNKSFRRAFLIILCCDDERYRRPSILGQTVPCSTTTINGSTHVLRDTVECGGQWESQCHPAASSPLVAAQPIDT

**Q.** With COc1cc(N)c(Cl)cc1C(=O)OCCCN1CCCCC1 as the compound, how does the Ki read?
**A.** 3980 pM

**Q.** Which Ki does the source give for CCCCN1CCC(COC(=O)c2cc(Cl)c(N)c3c2OCCO3)CC1 [CAS_121881] here?
**A.** 10 pM

**Q.** How did the Ki turn out when Cn1cc(C(=O)OCC2CCN(CCNS(C)(=O)=O)CC2)c2ccccc21 [GR 113808] was run?
**A.** 60 pM

**Q.** How did the Ki turn out when COc1[nH]c2ccc(F)cc2c1C(=O)OCC1CCN(CCNS(C)(=O)=O)CC1 [GR-125487] was run?
**A.** 30 pM

**Q.** For COc1cc(COc2cc(N)c(Cl)cc2C(=O)CCCCN2CCCCC2)cc(OC)c1 [RS-67532], which Ki is on record?
**A.** 1990 pM

**Q.** How did the Ki turn out when CCCCN1CCC(CNC(=O)c2c3n(c4ccccc24)CCCO3)CC1 [SB-207266] was run?
**A.** 390 pM

**Q.** CCN(CC)CCOC(=O)c1cc(Cl)c(N)cc1OC [SDZ-205557] was tested. Which Ki did it give?
**A.** 2510 pM
